Five compounds from PubChem BioAssay AID330 (DTP/NCI, 2004) can be followed below.

Several values for one entry are separate records, joined by “and”; a condition that tells them apart may be missing. Identical values can stand only once. Toxic doses and inconclusive results are not listed.

The subject of this experiment is P388 leukemia ip, CD2F1 mice, survival T/C. In words: NCI In Vivo Anticancer Drug Screen. Data for tumor model P388 Leukemia (intraperitoneal) in CD2F1 (CDF1) mice. The settings on record: endpoint: median survival time, higher = longer survival. The gist of the method:
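Mice carrying the transplanted tumor received test compound or vehicle. Survival was recorded in each group, and the value is the treated-group measurement divided by that of the vehicle-treated control group.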

Regarding `N[C@H](C(=O)O)[C@@H]1CC(Cl)=NO1`, the T/C was 105 % of control and 108 % of control (dose: 0.03 mg/kg/injection, schedule: Q01DX009 (ip), vehicle: saline); 113 % of control (dose: 0.06 mg/kg/injection, schedule: Q01DX009 (ip), vehicle: saline); 120 % of control (dose: 0.13 mg/kg/injection, schedule: Q01DX009 (ip), vehicle: saline); 150 % of control (dose: 0.25 mg/kg/injection, schedule: Q01DX009 (ip), vehicle: saline); 155 % of control (dose: 0.5 mg/kg/injection, schedule: Q01DX009 (ip), vehicle: saline); 174 % of control (dose: 0.63 mg/kg/injection, schedule: Q01DX009 (ip), vehicle: saline). Moreover, the T/C reads like this: (dose: 0.75 mg/kg/injection, schedule: Q01DX009 (ip), vehicle: saline) 155 % of control; (dose: 1.0 mg/kg/injection, schedule: Q01DX009 (ip), vehicle: saline) 150 % of control and 171 % of control; (dose: 1.0 mg/kg/injection, schedule: Q01DX009 (ip), vehicle: water) 121 % of control; (dose: 1.25 mg/kg/injection, schedule: Q01DX009 (ip), vehicle: saline) 213 % of control; (dose: 1.94 mg/kg/injection, schedule: Q01DX009 (ip), vehicle: saline) 165 % of control and 179 % of control and 192 % of control; (dose: 2.0 mg/kg/injection, schedule: Q01DX005 (ip), vehicle: saline) 119 % of control. For the same compound, the T/C runs as follows: (dose: 2.0 mg/kg/injection, schedule: Q01DX005 (ip), vehicle: water) 111 % of control; (dose: 2.0 mg/kg/injection, schedule: Q01DX005 (iv), vehicle: saline) 119 % of control; (dose: 2.0 mg/kg/injection, schedule: Q01DX009 (ip), vehicle: saline) 152 % of control and 164 % of control and 198 % of control; (dose: 2.0 mg/kg/injection, schedule: Q01DX009 (ip), vehicle: water) 153 % of control; (dose: 2.3 mg/kg/injection, schedule: Q01DX009 (ip), vehicle: saline) 190 % of control; (dose: 2.5 mg/kg/injection, schedule: Q01DX009 (ip), vehicle: saline) 235 % of control. For the same compound, the T/C (dose: 3.0 mg/kg/injection, schedule: Q01DX005 (iv), vehicle: saline) was 119 % of control; the T/C (dose: 3.0 mg/kg/injection, schedule: Q01DX009 (ip), vehicle: saline) was 175 % of control and 180 % of control and 238 % of control; the T/C (dose: 3.12 mg/kg/injection, schedule: Q01DX005 (ip), vehicle: water) was 155 % of control; the T/C (dose: 3.24 mg/kg/injection, schedule: Q01DX009 (ip), vehicle: saline) is 177 % of control and 189 % of control and 203 % of control; the T/C (dose: 3.5 mg/kg/injection, schedule: Q01DX009 (ip), vehicle: saline) was 194 % of control; the T/C (dose: 4.0 mg/kg/injection, schedule: Q01DX005 (ip), vehicle: saline) was 161 % of control. Also, the T/C by setting is: (dose: 4.0 mg/kg/injection, schedule: Q01DX005 (iv), vehicle: saline) 119 % of control; (dose: 4.0 mg/kg/injection, schedule: Q01DX009 (ip), vehicle: saline) 161 % of control and 190 % of control; (dose: 4.0 mg/kg/injection, schedule: Q01DX009 (ip), vehicle: water) 112 % of control; (dose: 4.32 mg/kg/injection, schedule: Q01DX005 (ip), vehicle: saline) 154 % of control; (dose: 5.0 mg/kg/injection, schedule: Q01DX005 (ip), vehicle: saline) 158 % of control; (dose: 5.0 mg/kg/injection, schedule: Q01DX009 (ip), vehicle: saline) 235 % of control. Further, the T/C runs as follows: (dose: 5.3 mg/kg/injection, schedule: Q01DX009 (ip), vehicle: saline) 203 % of control; (dose: 5.4 mg/kg/injection, schedule: Q01DX009 (ip), vehicle: saline) 163 % of control and 188 % of control and 204 % of control; (dose: 6.0 mg/kg/injection, schedule: Q01DX009 (ip), vehicle: saline) 173 % of control and 186 % of control and 319 % of control; (dose: 6.25 mg/kg/injection, schedule: Q01DX005 (ip), vehicle: water) 150 % of control and 168 % of control; (dose: 7.2 mg/kg/injection, schedule: Q01DX005 (ip), vehicle: saline) 156 % of control; (dose: 8.0 mg/kg/injection, schedule: Q01DX005 (ip), vehicle: saline) 171 % of control and 182 % of control. Moreover, the T/C is, setting by setting: (dose: 8.0 mg/kg/injection, schedule: Q01DX005 (iv), vehicle: saline) 119 % of control; (dose: 8.0 mg/kg/injection, schedule: Q01DX009 (ip), vehicle: saline) 186 % of control and 210 % of control; (dose: 8.0 mg/kg/injection, schedule: Q01DX009 (ip), vehicle: water) 184 % of control; (dose: 9.0 mg/kg/injection, schedule: Q01DX009 (ip), vehicle: saline) 99 % of control; (dose: 10.0 mg/kg/injection, schedule: Q01DX005 (ip), vehicle: saline) 164 % of control; (dose: 12.0 mg/kg/injection, schedule: Q01DX005 (ip), vehicle: saline) 220 % of control. For the same compound, the T/C runs as follows: (dose: 12.0 mg/kg/injection, schedule: Q01DX005 (iv), vehicle: saline) 171 % of control; (dose: 12.5 mg/kg/injection, schedule: Q01DX005 (ip), vehicle: water) 155 % of control and 182 % of control; (dose: 15.0 mg/kg/injection, schedule: Q01DX009 (ip), vehicle: saline) 98 % of control and 100 % of control; (dose: 16.0 mg/kg/injection, schedule: Q01DX005 (ip), vehicle: saline) 164 % of control and 181 % of control; (dose: 16.0 mg/kg/injection, schedule: Q01DX005 (ip), vehicle: water) 152 % of control and 163 % of control; (dose: 16.0 mg/kg/injection, schedule: Q01DX009 (ip), vehicle: saline) 102 % of control and 218 % of control. Moreover, the T/C was 198 % of control (dose: 16.0 mg/kg/injection, schedule: Q01DX009 (ip), vehicle: water); 169 % of control and 176 % of control (dose: 20.0 mg/kg/injection, schedule: Q01DX005 (ip), vehicle: saline); 158 % of control (dose: 20.0 mg/kg/injection, schedule: Q04DX003 (ip), vehicle: saline); 222 % of control (dose: 24.0 mg/kg/injection, schedule: Q01DX005 (ip), vehicle: saline); 108 % of control (dose: 24.0 mg/kg/injection, schedule: Q01DX005 (iv), vehicle: saline); 155 % of control and 187 % of control (dose: 25.0 mg/kg/injection, schedule: Q01DX005 (ip), vehicle: water). In addition, the T/C is 225 % of control (dose: 32.0 mg/kg/injection, schedule: Q01DX005 (ip), vehicle: saline); 170 % of control (dose: 32.0 mg/kg/injection, schedule: Q01DX005 (ip), vehicle: water); 180 % of control and 196 % of control (dose: 40.0 mg/kg/injection, schedule: Q04DX003 (ip), vehicle: saline); 163 % of control (dose: 50.0 mg/kg/injection, schedule: Q04DX003 (ip), vehicle: other); 150 % of control and 190 % of control and 297 % of control (dose: 80.0 mg/kg/injection, schedule: Q04DX003 (ip), vehicle: saline); 161 % of control (dose: 100.0 mg/kg/injection, schedule: Q04DX003 (ip), vehicle: other). Further, the T/C (dose: 160.0 mg/kg/injection, schedule: Q04DX003 (ip), vehicle: saline) was 118 % of control and 164 % of control and 250 % of control.
Consider `Cc1ccccc1OCC1COCN(C(C)(C)C)CO1` (centres undefined), for which the T/C was 100 % of control (dose: 60.0 mg/kg/injection, schedule: Q01DX005 (ip), vehicle: saline with Tween-80); 107 % of control (dose: 120.0 mg/kg/injection, schedule: Q01DX005 (ip), vehicle: saline with Tween-80); 102 % of control (dose: 240.0 mg/kg/injection, schedule: Q01DX005 (ip), vehicle: saline with Tween-80).
As for `COc1ccc(Cc2nccc3cc(OC)c(OC)cc23)cc1OC`, the T/C (dose: 12.5 mg/kg/injection, schedule: Q01DX009 (ip), vehicle: saline) was 104 % of control and the T/C (dose: 50.0 mg/kg/injection, schedule: Q01DX009 (ip), vehicle: saline) is 109 % of control.
With `CC(C)(C)OC(=O)NN(CC(=O)OCc1ccccc1)N=O`, the T/C (dose: 12.5 mg/kg/injection, schedule: Q01DX009 (ip), vehicle: other) was 104 % of control; the T/C (dose: 25.0 mg/kg/injection, schedule: Q01DX009 (ip), vehicle: other) is 97 % of control; the T/C (dose: 50.0 mg/kg/injection, schedule: Q01DX009 (ip), vehicle: other) was 97 % of control; the T/C (dose: 100.0 mg/kg/injection, schedule: Q01DX009 (ip), vehicle: other) is 101 % of control; the T/C (dose: 200.0 mg/kg/injection, schedule: Q01DX009 (ip), vehicle: other) is 97 % of control.
Consider `CC(=O)c1cc2c(cc1I)OCO2`, for which the T/C (dose: 100.0 mg/kg/injection, schedule: Q01DX001 (ip), vehicle: Klucel (hydroxypropylcellulose) (HPC)) was 101 % of control; the T/C (dose: 200.0 mg/kg/injection, schedule: Q01DX001 (ip), vehicle: Klucel (hydroxypropylcellulose) (HPC)) is 99 % of control; the T/C (dose: 400.0 mg/kg/injection, schedule: Q01DX001 (ip), vehicle: Klucel (hydroxypropylcellulose) (HPC)) is 101 % of control.
